{"source": "paper PMC9599717", "about": "“The Multicellular Effects of VDAC1 N-Terminal-Derived Peptide” (Biomolecules, 2022)", "key": {"[1]": {"molecular_target": "T1, G-actin (Oryctolagus cuniculus, UniProt P68135)", "T1 construct": "Actin was purified from rabbit muscle as CaATP–G-actin complex; from tissue; host or cells: rabbit muscle", "assay": "Pyrenyl-actin G-actin polymerization assay", "assay_type": "biochemical, rabbit", "settings": "16.7 µM peptide, 2 μM MgATP–G-actin with 10% pyrenyl-labeled actin, 22 °C", "method": "Actin was purified from rabbit muscle as CaATP–G-actin complex according to the published method using Supredex S200 (Cytiva Lifesciences) size exclusion chromatography in a buffer G composed of 5 mM Tris/HCl, pH 7.8, 0.2 mM CaCl2, 0.2 mM ATP, 0.5 mM dithiothreitol, and 0.01% NaN3. The purified G-actin was fluorescently labeled on Cys-374 with N-(1-pyrene) iodoacetamide (Invitrogene) to a molar ratio of 0.8 to 1.0 pyrene/G-actin, as described previously. CaATP–G-actin was converted into MgATP–G-actin by incubation on ice for 20 min with 20 μM MgCl2 and 0.2 mM EGTA to 10 μM and was used within 1 h.\nG-actin polymerization was monitored by following the increase in the fluorescence of 10% pyrenyl-labeled actin. […] Fluorescence measurements were carried out at 22 °C in a Horiba/Jobin Yvon FluoroLog Spectrofluorometer using excitation and emission wavelengths of 365 and 407 nm, respectively. Data were analyzed using GraphPad Prism4.1.681 for Windows software (San Diego, CA, USA).\nFigure 5 D-Δ(1-18)N-Ter-Antp altered actin filament organization (A,B) U-87MG cells were cultured and incubated for 24 h with D-Δ(1-18)N-Ter-Antp (10 µM). Cells were stained for actin using Phalloidin-488 and visualized by confocal microscopy (A) and quantified for Phalloidin-488 staining intensity (B). […] (D) Actin interaction with VDAC1 analyzed using the MST method. […]"}, "[2]": {"test_system": "U-87MG (human glioblastoma)", "assay": "Cell death by PI staining and flow cytometry (FACS), U-87MG", "assay_type": "cell-based", "settings": "U-87MG cells", "method": "MEC-1 cells were incubated in a serum-free medium with various concentrations of VDAC1-based peptides for 1.5 h at room temperature (RT), collected by centrifugation, washed with phosphate-buffered saline (PBS), and analyzed for cell death. Adherent cancer cells were seeded in culture plates and allowed to adhere overnight in a sterile cell culture incubation chamber maintained at 37 °C and 5% CO2. The next day, media was removed from the plates, and cells were treated with various concentrations of VDAC1-based peptides for the indicated time in serum-free Dulbecco’s Modified Eagle Medium (DMEM) with and without DMSO (final 0.15%) as a control for 6 h at 37 °C and 5% CO2. Cells were trypsinized, centrifuged (1500× g, 5 min), and washed with PBS.\nCell death was analyzed by the propidium iodide (PI) staining, followed by flow cytometry with the iCyt sy3200 Benchtop Cell Sorter/Analyzer and analysis with EC800 v 1.3.7 software (Sony Biotechnology Inc., San Jose, CA, USA). Apoptosis was analyzed by PI and annexin V-FITC staining, which was carried out according to the manufacturer’s instructions with minor modifications. U-87MG cells, untreated (control) or treated with various concentrations of VDAC1-based peptides, were harvested and washed once with binding buffer (10 mM HEPES/NaOH, pH 7.4, 140 mM NaCl, and 2.5 mM CaCl2). […] Next, cells were washed and PI (6.25 μg/mL), was added immediately before flow cytometry At least 10,000 events were collected, recorded on a dot plot, and analyzed by flow cytometry.\nFigure 1 VDAC1-based peptides induced cell death in various cancer cell lines. […] (E) Human cervix adenocarcinoma (HeLa) (▲) and human glioblastoma (U-87MG) (●, ○) cell lines were incubated 6 h with the indicated concentrations of D-Δ(1-18)N-Ter-Antp peptide and analyzed for cell death PI staining and flow cytometry (o,▲) or FITC–annexin V/PI staining and flow cytometry analysis (●). (F) U-87MG cells were treated with 10 µM (○), 20 µM (●) or without (Δ) of D-Δ(1-18)N-Ter-Antp peptide for the indicated times, and cell death was analyzed by PI staining and flow cytometry. […]"}}}
{"substance": "19-FTKGYGFGL-26- RQIKIWFQNRRMKWKK [D-Δ(1-18)N-Ter-Antp]", "values": [{"measurement": "Effect on G-actin polymerization", "setting": "[1]", "value": "inhibition of the actin filament assembly"}, {"measurement": "Cell death in time course", "setting": "[2]; 3-h incubation, 10 or 20 µM tested (Figure 1F), PI staining", "value": "about 70%"}, {"measurement": "Maximal cell death (at the concentration for maximal cell death)", "setting": "[2]; 6 h", "value": 70, "unit": "%"}, {"measurement": "IC50", "setting": "[2]; 6 h incubation, serum-free medium, PI staining and FACS, read-out: IC50, peptide concentration required for half-maximal cell death activity", "value": 6, "unit": "µM"}]}
